Laboratory results taken from patent US9918966B2, “Anti-cancer compositions and methods” (The Penn State Research Foundation, priority 2013, dated 2018).
Where two headings read alike, the source gives them in different places.

Assays:
[1] = tested on: UACC 903 tumors; type: in vivo, athymic-Foxn1nu nude mice
Description: (§1) Tumor kinetics are measured by subcutaneous injection of 1×10^6 1205 Lu or UACC 903 cells in 0.2 mL of DMEM supplemented with 10% FBS subcutaneously injected above both left and right rib cages of 3- to 4-wk-old female athymic-Foxn1^nu nude mice (Harlan Sprague Dawley, IN).

[2] = tested on: 1205 Lu tumors; type: in vivo, athymic-Foxn1nu nude mice
Description: as §1

[3] = Description: Number of mice surviving and changes in body weight after 7 days of drug treatment is scored (Table I).
[4] = biological target: T1, Human recombinant COX-2 (Homo sapiens, UniProt P35354); type: biochemical; details: 0.2, 2.0 and 20 nM; DMSO = 100% activity; FIG. 2C
T1 construct: purchased Cayman Chemical, Ann Arbor, Mich
T1 sequence (P35354 18-604): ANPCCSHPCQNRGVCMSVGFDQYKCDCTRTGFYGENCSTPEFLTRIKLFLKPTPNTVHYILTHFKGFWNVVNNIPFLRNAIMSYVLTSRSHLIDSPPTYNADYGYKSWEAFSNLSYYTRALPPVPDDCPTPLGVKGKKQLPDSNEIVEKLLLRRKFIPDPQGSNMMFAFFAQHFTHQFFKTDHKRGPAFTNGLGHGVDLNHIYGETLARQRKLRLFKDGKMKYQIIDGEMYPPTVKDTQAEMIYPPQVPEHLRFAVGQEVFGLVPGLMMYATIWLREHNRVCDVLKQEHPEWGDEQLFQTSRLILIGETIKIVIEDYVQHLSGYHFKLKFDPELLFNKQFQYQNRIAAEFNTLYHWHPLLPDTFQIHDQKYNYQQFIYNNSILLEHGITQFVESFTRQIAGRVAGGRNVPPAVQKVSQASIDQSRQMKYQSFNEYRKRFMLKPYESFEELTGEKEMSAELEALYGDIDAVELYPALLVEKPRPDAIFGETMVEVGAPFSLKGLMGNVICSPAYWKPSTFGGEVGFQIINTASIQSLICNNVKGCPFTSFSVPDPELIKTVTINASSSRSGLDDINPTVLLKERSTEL

[5] = tested on: PC-3 (Prostate); assay: IC50 for killing cancer cells; type: cell-based; details: Homo sapiens
Description: (§2) Therapeutic universality of selenocoxib-1-GSH for killing cancer cells is examined by treating pancreatic (MiaPaca-2), breast (MDA-MB-231), prostate (PC-3) or sarcoma (HT-1080) and colon (Caco2) cell. lines with the drug and establishing the IC50 for each cell line, Table III. Selenocoxib-1-GSH kills the various cancer cell lines at 2-3-fold lower concentrations than normal fibroblast cells.

[6] = tested on: MiaPaca-2 (Pancreas); assay: IC50 for killing cancer cells; type: cell-based; details: Homo sapiens, MIA PaCa-2
Description: as §2

[7] = tested on: HT-1080 (Fibro sarcoma); assay: IC50 for killing cancer cells; type: cell-based; details: Homo sapiens
Description: as §2

[8] = tested on: Caco-2 (Colon); assay: IC50 for killing cancer cells; type: cell-based; details: Homo sapiens
Description: as §2

[9] = tested on: MDA-MB-231 (Breast); assay: IC50 for killing cancer cells; type: cell-based; details: Homo sapiens
Description: as §2

[10] = tested on: various cancer cell lines; assay: Killing of various cancer cell lines compared with normal fibroblast cells; type: cell-based, human; details: MiaPaca-2, MDA-MB-231, PC-3, HT-1080, Caco2 versus normal fibroblast cells
Description: as §2

[11] = tested on: UACC 903 melanoma cells; assay: Western blot analysis; type: cell-based, human
Description: (§3) Cell lysates are harvested and processed as described in Sharma A et al., Cancer Res 2006, 66:8200-9. […] Protein lysates are collected for Western blotting. Blots are probed with total and phospho-Akt (Ser473), phospho-PRAS40 (Thr246), phospho-Erk1/2 (Thr202/Tyr204), total and Phospho-Mek1/2 (Ser217) and cleaved PARP from Cell Signaling Technology (Danvers, Mass.). Total PRAS40 from Invitrogen (Carlsbad, Calif.). Total Erk, cyclin D1, p27, Alpha-enolase and secondary antibodies conjugated with horseradish peroxidase from Santa Cruz Biotechnology (Santa Cruz Biotechnology, Santa Cruz, Calif.). COX-1 and COX-2 antibodies were obtained from Cayman Chemical Company, Ann Arbor, Mich. Immunoblots are developed using the enhanced chemiluminescence detection system (Amersham Pharmacia Biotech, Piscataway, N.J.).

[12] = tested on: 1205 Lu melanoma cells; assay: Western blot analysis; type: cell-based, human
Description: as §3

NC(CCC(=O)NC(CS[Se]Cc1cc(-c2ccccc2)n(-c2ccc(S(N)(=O)=O)cc2)n1)C(=O)NCC(=O)O)C(=O)O (stereo not shown) [Selenocoxib-1-GSH, selenocoxib-1-glutathione]
decrease in tumor volume ([1]; UACC 903, at the end of treatment, compared to controls): ≤ 70% | reduction of tumor development ([1]; UACC 903, 0.127 μmoles (10 ppm selenium) intraperitoneally on alternate days for 4 weeks, compared to DMSO control): 52% | day from which a significant decrease in xenograft tumor development is observed ([1]; UACC 903 tumors, compared to vehicle DMSO): 22 days | day from which a significant decrease in xenograft tumor development is observed ([2]; 1205 Lu tumors, compared to vehicle DMSO): 16 days | decrease in tumor volume ([2]; 1205 Lu, at the end of treatment, compared to controls): ≤ 70% | reduction of tumor development ([2]; 1205 Lu, 0.127 μmoles (10 ppm selenium) intraperitoneally on alternate days for 4 weeks, compared to DMSO control): 70.5% | % of weight loss ([3]; 0.127 μmoles (10 PPM) intraperitoneally daily for seven days): No loss | Mortality at Day 7 ([3]; 0.127 μmoles intraperitoneally daily for seven days, 3 mice/group (Selenocoxib-1-GSH: 10 PPM)): 0/3 | % of weight loss ([3]; 0.254 μmoles (20 PPM) intraperitoneally daily for seven days): 2.0% | Mortality at Day 7 ([3]; 0.254 μmoles (20 PPM) intraperitoneally daily for seven days, 3 mice/group): 0/3 | mortality ([3]; 0.127 to 0.254, seven days): no mortality | weight loss ([3]; 0.127 to 0.254 moles (equivalent to 5 to 10 ppm of selenium), seven days): ~2% | COX-2 inhibitory activity [4]: retain COX-2 inhibitory activity | IC50 [5]: 16.4 ± 2.11 µM | IC50 [6]: 13.3 ± 1.01 µM | IC50 [7]: 9.1 ± 1.89 µM | IC50 [8]: 16.1 ± 0.87 µM | IC50 [9]: 15.4 ± 2.51 µM | lower concentrations killing cancer cell lines than normal fibroblast cells [10]: 2-3 fold | cleaved PARP protein ([11]; UACC 903): elevates levels of cleaved PARP protein | expression of cyclin-D1 ([11]; UACC 903): inhibits the expression of cyclin-D1 | levels of p27 ([11]; UACC 903): increases the levels of p27 | pErk1/2 levels ([11]; UACC 903, 15 and 20 μmol/L): increased pErk1/2 levels | pPRAS40 ([11]; UACC 903, 72 h): reduces expression | Akt phosphorylation ([11]; UACC 903, 72 h, increasing concentrations, compared to celecoxib): inhibited the Akt phosphorylation in a dose dependent manner | cleaved PARP protein [12]: elevates levels of cleaved PARP protein | expression of cyclin-D1 [12]: inhibits the expression of cyclin-D1 | levels of p27 [12]: increases the levels of p27 | pErk1/2 levels ([12]; 15 and 20 μmol/L): increased pErk1/2 levels | pPRAS40 ([12]; 72 h): reduces expression | Akt phosphorylation ([12]; 72 h, increasing concentrations, compared to celecoxib): inhibited the Akt phosphorylation in a dose dependent manner
